Data taken from patent publication US7173034B2, “Respiratory syncytial virus replication inhibitors” (Janssen Pharmaceutica, N.V., priority 1999, dated 2007).
Blank lines part the entries; values can stand above or below the compound they belong to.

Key:
[1] = tested on: Respiratory Syncytial Virus; assay: microbe, parasite or virus in culture; type: cell-based; conditions: for SI (selectivity index, CC50 divided by IC50): CC50 (HeLa cells) / IC50 (Respiratory Syncytial Virus); for IC50: human respiratory syncytial virus, 168 h, Respiratory Syncytial Virus in HeLa cells, seven days after infection, tetrazolium-based colorimetric assay, read-out: IC50 (antiviral activity, protection against cytopathology caused by virus)
Method: (§1) The percent protection against cytopathology caused by viruses (antiviral activity or IC50) achieved by tested compounds and their cytotoxicity (CC50) were both calculated from dose-response curves.
Automated tetrazolium-based colorimetric assays were used for determination of IC50 and CC50 of test compounds. Flat-bottom, 96-well plastic microtiter trays were filled with 180 μl of Eagle's Basal Medium, supplemented with 5% FCS (0% for FLU) and 20 mM Hepes buffer. Subsequently, stock solutions (7.8× final test concentration) of compounds were added in 45 μl volumes to a series of triplicate wells so as to allow simultaneous evaluation of their effects on virus- and mock-infected cells. Five five-fold dilutions were made directly in the microtiter trays using a robot system. Untreated virus controls, and HeLa cell controls were included in each test. Approximately 100 TCID50 of Respiratory Syncytial Virus was added to two of the three rows in a volume of 50 μl. The same volume of medium was added to the third row to measure the cytotoxicity of the compounds at the same concentrations as those used to measure the antiviral activity. After two hours of incubation, a suspension (4×10^5 cells/ml) of HeLa cells were added to all wells in a volume of 50 μl. The cultures were incubated at 37° C. in a 5% CO2 atmosphere. Seven days after infection the cytotoxicity and the antiviral activity was examined spectrophotometrically. To each well of the microtiter tray, 25 μl of a solution of MTT (3-(4,5-dimethylthiazol-2-yl)-2,5-diphenyltetrazolium bromide) was added. The trays were further incubated at 37° C. for 2 hours, after which the medium was removed from each cup. Solubilization of the formazan crystals was achieved by adding 100 μl 2-propanol. Complete dissolution of the formazan crystals were obtained after the trays have been placed on a plate shaker for 10 min. Finally, the absorbances were read in an eight-channel computer-controlled photometer (Multiskan MCC, Flow Laboratories) at two wavelengths (540 and 690 nm). The absorbance measured at 690 nm was automatically subtracted from the absorbance at 540 nm, so as to eliminate the effects of non-specific absorption.

[2] = Cytotoxicity in mock-infected HeLa cells (tetrazolium/MTT colorimetric assay); type: cell-based; conditions: human
Method: as §1
Automated tetrazolium-based colorimetric assays were used for determination of IC50 and CC50 of test compounds. Flat-bottom, 96-well plastic microtiter trays were filled with 180 μl of Eagle's Basal Medium, supplemented with 5% FCS (0% for FLU) and 20 mM Hepes buffer. Subsequently, stock solutions (7.8× final test concentration) of compounds were added in 45 μl volumes to a series of triplicate wells so as to allow simultaneous evaluation of their effects on virus- and mock-infected cells. Five five-fold dilutions were made directly in the microtiter trays using a robot system. Untreated virus controls, and HeLa cell controls were included in each test. Approximately 100 TCID50 of Respiratory Syncytial Virus was added to two of the three rows in a volume of 50 μl. […] Finally, the absorbances were read in an eight-channel computer-controlled photometer (Multiskan MCC, Flow Laboratories) at two wavelengths (540 and 690 nm). The absorbance measured at 690 nm was automatically subtracted from the absorbance at 540 nm, so as to eliminate the effects of non-specific absorption.

- melting point: 146 °C
Compound: O=CNCCN1CCC(Nc2nc3ccccc3n2Cc2ccccn2)CC1 [Compound 18]

- melting point: 112 °C
Compound: CCC(CN)N1CCC(Nc2nc3ccccc3n2Cc2ccccn2)CC1 (centres unmarked) [Compound 23]

- melting point: 115 °C
Compound: CC(C)C(N)CN1CCC(Nc2nc3ccccc3n2Cc2ccccn2)CC1 (centres unmarked) [Compound 24]

- IC50 [1]: 0.0126 µM
Compound: Cc1ccc(OCCO)c(Cn2c(NC3CCN(CCN)CC3)nc3ccccc32)n1 [Compound 27]
- SI (selectivity index, CC50 divided by IC50) [1]: >7943
- CC50 at 7 days [2]: > 100 µM

- melting point: 85 °C
Compound: CC(CN)N1CCC(Nc2nc3ccccc3n2C(C)c2ccccn2)CC1 (centres unmarked) [Compound 30]

- melting point: 94 °C
Compound: NCCCCN1CCC(Nc2nc3ccccc3n2Cc2ccccn2)CC1 [Compound 31]

Compound: Cc1ccc(O)c(Cn2c(NC3CCN(CCN)CC3)nc3c(C)cccc32)n1 [Compound 357]
- SI (selectivity index, CC50 divided by IC50) [1]: >79
- IC50 [1]: 0.00013 µM
- CC50 at 7 days ([2]; mock-infected HeLa cells, seven days, tetrazolium-based colorimetric assay): > 0.01 µM
